Several values for one entry are separate records, joined by “and”; a condition that tells them apart may be missing. Equal entries are not always repeated. Numbers after ± are expanded uncertainties.
Assay: activity coefficient (dimensionless); of the first substance listed, at infinite dilution; xn = mol fraction of the nth substance listed
Conditions: Liquid, x1 = 0
[1] = 333.15 K, Rayleigh distillation method
[2] = 343.15 K, Rayleigh distillation method
[3] = 353.15 K, Rayleigh distillation method

activity coefficient (313.15 K, headspace analysis) | activity coefficient (372.65 K, circulation still method) | activity coefficient (372.82 K, circulation still method) | SMILES | activity coefficient (298.15 K, headspace analysis) | activity coefficient [1] | activity coefficient [2] | activity coefficient [3] | activity coefficient (372.47 K, ciculation still method) | activity coefficient (372.85 K, ciculation still method)
 |  |  | Nc1ccccc1 [aniline] + O | 145 ± 15 | 130 ± 13 | 121 and 119 | 111 ± 11 | 92.7 ± 9.3 | 
29.1 ± 2.9 | 64.5 ± 6.5 | 53.5 and 64.6 | NC1CCCCC1 [cyclohexylamine] + O | 19 ± 2 | 36.7 ± 3.7 | 44.8 ± 4.5 | 51.2 ± 5.1 |  | 
 |  |  | O=[N+]([O-])c1ccccc1 [nitrobenzene] + O |  | 2450 and 2320 | 2150 ± 220 | 1640 and 1660 |  | 1320 ± 130

Reference: the NIST ThermoML archive (doi:10.1021/je060136y)
